Laboratory results reported in ChEMBL document CHEMBL5230093, “The importance of indole and azaindole scaffold in the development of antitumor agents” (Eur J Med Chem, 2020).

What was measured:
HepG2 [1] = test: Anticancer activity against human HepG2 cells incubated for 24 hrs by SRB method; type: functional, cell-based; details: HepG2, 24 h
MCF7 [2] = test: Anticancer activity against human MCF7 cells incubated for 24 hrs by SRB method; type: functional, cell-based; details: MCF7, 24 h
HCT-116 [3] = test: Anticancer activity against human HCT-116 cells incubated for 24 hrs by SRB method; type: functional, cell-based; details: HCT-116, 24 h
MCF7 [4] = test: Antiproliferative activity against human MCF7 cells by SRB assay; type: functional, cell-based
NCI-H460 = test: Growth inhibition of human NCI-H460 cells; type: functional
BXPC-3 = test: Growth inhibition of human BXPC-3 cells; type: functional
PANC-1 = test: Growth inhibition of human PANC-1 cells; type: functional
HepG2 [5] = test: Potency index, ratio of doxorubicin IC50 to compound IC50 for anticancer activity against human HepG2 cells; type: functional
MCF7 [6] = test: Potency index, ratio of doxorubicin IC50 to compound IC50 for anticancer activity against human MCF7 cells; type: functional
HCT-116 [7] = test: Potency index, ratio of doxorubicin IC50 to compound IC50 for anticancer activity against human HCT-116 cells; type: functional
DU-145 = test: Antiproliferative activity against human DU-145 cells; type: functional, cell-based
HeLa [8] = test: Antiproliferative activity against human HeLa cells measured after 48 hrs by MTT assay; type: functional, cell-based
HepG2 [9] = test: Antiproliferative activity against human HepG2 cells measured after 48 hrs by MTT assay; type: functional, cell-based; details: HepG2, 48 h
MCF7 [10] = test: Antiproliferative activity against human MCF7 cells measured after 48 hrs by MTT assay; type: functional, cell-based; details: MCF7, 48 h
Histone deacetylase 4 = Histone deacetylase 4 (Homo sapiens, UniProt P56524); test: Inhibition of human recombinant HDAC4 using Boc-Lys(Ac)-AMC as substrate preincubated for 15 mins followed by substrate addition and measured after 60 mins by fluorescence based analysis
[11] = target: Bromodomain-containing protein 4 (Homo sapiens) (UniProt O60885); test: Inhibition of GST tagged BRD4 (unknown origin) at 10 uM by HTRF assay relative to control
THP-1 = test: Antiproliferative activity against human THP-1 cells incubated for 24 hrs by trypan blue reagent based analysis; type: functional, cell-based; details: THP-1, 24 h
A549 [12] = test: Antitumor activity against human A549 cells xenografted in mouse model assessed as tumor growth inhibition relative to control; type: functional; parameters: scale not given: the % may be the effect or the level left
MCF7 [13] = test: Cytotoxicity against human MCF7 cells; type: functional, cell-based
HCT-116 [14] = test: Cytotoxicity against human HCT-116 cells; type: functional, cell-based
HeLa [15] = test: Anticancer activity against human HeLa cells by MTT assay; type: functional, cell-based; details: pooled result: one value given for 4 cell lines, strains, targets or settings
[16] = Antiproliferative activity against human SUIT-2 cells; type: functional, cell-based
[17] = Inhibition of cell migration of human SUIT-2 cells; type: functional, cell-based
HepG2 [18] = test: Cytotoxicity against human HepG2 cells; type: functional, cell-based
A549 [19] = test: Cytotoxicity against human A549 cells; type: functional, cell-based
[20] = Resistance factor, ratio of IC50 for human K562/VCR cells to IC50 for K562 cells; type: functional; details: time 72 hrs
HeLa [21] = test: Cytotoxicity against human HeLa cells; type: functional, cell-based
A549 [22] = test: Cytotoxicity against human A549 cells assessed as reduction in cell growth; type: functional, cell-based
Tubulin = test: Inhibition of tubulin polymerization (unknown origin); type: protein-complex assay, Homo sapiens
MCF7 [23] = test: Antiproliferative activity against human MCF7 cells; type: functional, cell-based
MCF7 [24] = test: Cytotoxicity against human MCF7 cells assessed as reduction in cell growth measured after 2 days by MTT assay; type: functional, cell-based; details: MCF7, 48 h
MDA-MB-231 = test: Cytotoxicity against human MDA-MB-231 cells measured after 72 hrs; type: functional, cell-based; details: MDA-MB-231, 72 h
HeLa [25] = test: Antiproliferative activity against human HeLa cells measured after 48 hrs by CCK-8 method; type: functional, cell-based
[26] = tested on: Panel NCI-60 (60 carcinoma cell lines); test: Antiproliferative activity against human Panel NCI-60 (60 carcinoma cell lines) cells; type: functional
UO-31 = test: Antiproliferative activity against human UO-31 cells; type: functional
[27] = Cytotoxicity against human Triple-negative breast cancer cells; type: functional, cell-based; details: Triple-negative breast cancer cell
HCT-15 = test: Antiproliferative activity against human HCT-15 cells; type: functional, cell-based

Sequence of Histone deacetylase 4 (P56524 whole entry): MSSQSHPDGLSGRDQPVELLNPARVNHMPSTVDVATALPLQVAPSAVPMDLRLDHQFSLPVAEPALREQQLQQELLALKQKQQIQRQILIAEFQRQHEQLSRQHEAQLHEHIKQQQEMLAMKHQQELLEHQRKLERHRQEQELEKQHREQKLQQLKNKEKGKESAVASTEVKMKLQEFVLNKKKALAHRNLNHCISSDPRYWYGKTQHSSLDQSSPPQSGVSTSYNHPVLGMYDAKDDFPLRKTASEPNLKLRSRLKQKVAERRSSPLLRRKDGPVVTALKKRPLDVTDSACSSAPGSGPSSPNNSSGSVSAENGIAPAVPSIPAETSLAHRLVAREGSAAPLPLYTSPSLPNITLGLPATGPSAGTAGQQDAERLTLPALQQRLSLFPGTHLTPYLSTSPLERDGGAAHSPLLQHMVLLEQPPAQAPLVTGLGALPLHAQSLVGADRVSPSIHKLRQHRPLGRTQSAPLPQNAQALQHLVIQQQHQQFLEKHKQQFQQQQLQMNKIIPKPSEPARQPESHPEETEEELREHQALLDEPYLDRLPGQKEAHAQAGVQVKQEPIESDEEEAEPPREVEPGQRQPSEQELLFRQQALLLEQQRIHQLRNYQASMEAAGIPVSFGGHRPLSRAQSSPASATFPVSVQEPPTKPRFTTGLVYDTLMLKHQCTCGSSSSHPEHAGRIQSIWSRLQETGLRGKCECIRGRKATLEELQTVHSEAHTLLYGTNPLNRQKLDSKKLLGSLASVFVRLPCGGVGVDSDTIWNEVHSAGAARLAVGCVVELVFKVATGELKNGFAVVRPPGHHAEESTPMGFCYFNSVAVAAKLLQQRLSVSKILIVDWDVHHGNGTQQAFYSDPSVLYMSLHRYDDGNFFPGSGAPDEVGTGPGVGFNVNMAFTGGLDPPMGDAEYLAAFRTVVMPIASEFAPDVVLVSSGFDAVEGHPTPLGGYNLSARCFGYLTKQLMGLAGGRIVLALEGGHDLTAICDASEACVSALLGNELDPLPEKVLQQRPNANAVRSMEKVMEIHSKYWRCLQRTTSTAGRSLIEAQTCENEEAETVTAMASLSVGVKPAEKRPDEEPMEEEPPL

Q: Which IC50 (HepG2 [1]) does the source give for `CC(=O)Nc1cccc(C(=O)/C=C2\C(=O)Nc3ccc(S(=O)(=O)N4CCOCC4)cc32)c1` here?
A: < 10 µM

Q: And the IC50 (MCF7 [2])?
A: < 10 µM

Q: What about the IC50 (HCT-116 [3]) of the same molecule?
A: < 10 µM

Q: For `COc1ccc2c(c1)c(/C=N/NC(=O)Cc1c[nH]c3ncccc13)cn2Cc1ccc(F)cc1F`, which IC50 (MCF7 [4]) is on record?
A: 22.3 µM

Q: What does the source list for `C[C@H]1NC(=O)[C@@H](Cc2c[nH]c3ccccc23)n2c1nc1ccccc1c2=O` [FUMIQUINAZOLINE G]?
A: GI50 (NCI-H460): 7.62 µM; GI50 (BXPC-3): 7.62 µM; GI50 (PANC-1): 7.62 µM

Q: For `N=c1nc(-c2cn(S(=O)(=O)c3ccccc3)c3ccccc23)cc(-c2cccc(O)c2)[nH]1`, which “Ratio IC50” value (HepG2 [5]) is on record?
A: >8

Q: And the “Ratio IC50” value (MCF7 [6])?
A: >8

Q: And the “Ratio IC50” value (HCT-116 [7])?
A: >8

Q: For `CS(=O)(=O)n1cc(-c2cc(-c3cccc(O)c3)[nH]c(=N)n2)c2ccccc21`, which “Ratio IC50” value (HepG2 [5]) is on record?
A: >8

Q: What about the “Ratio IC50” value (MCF7 [6]) of the same molecule?
A: >8

Q: And the “Ratio IC50” value (HCT-116 [7])?
A: >8

Q: Which IC50 (DU-145) does the source give for `COc1cc([C@@H]2c3cc4c(cc3[C@@H](O[C@@H]3O[C@@H]5CO[C@@H](C)O[C@H]5[C@H](O)[C@H]3O)[C@H]3COC(=O)[C@H]23)OCO4)cc(OC)c1O` [ETOPOSIDE] here?
A: 9.8 µM

Q: With `CS(=O)(=O)n1cc(-c2cc(-c3cccc(O)c3)[nH]c(=S)n2)c2ccccc21` as the molecule, how does the “Ratio IC50” value (HepG2 [5]) read?
A: >8

Q: What about the “Ratio IC50” value (MCF7 [6]) of the same molecule?
A: >8

Q: What about the “Ratio IC50” value (HCT-116 [7]) of the same molecule?
A: >8

Q: With `COC(=O)c1ccc(C(=O)/C=C2\C(=O)Nc3ccc(S(=O)(=O)N4CCOCC4)cc32)cc1` as the molecule, how does the IC50 (HepG2 [1]) read?
A: < 10 µM

Q: And the IC50 (MCF7 [2])?
A: < 10 µM

Q: And the IC50 (HCT-116 [3])?
A: < 10 µM

Q: What does the source list for `N#CC(C#N)=C1C(=O)Nc2ccc(S(=O)(=O)N3CCOCC3)cc21`?
A: IC50 (HepG2 [1]): < 10 µM; IC50 (MCF7 [2]): < 10 µM; IC50 (HCT-116 [3]): < 10 µM

Q: Which IC50 (HeLa [8]) does the source give for `Nc1c(C(=O)c2cccc3ccccc23)[nH]c2ncccc12` here?
A: 3.7 µM

Q: What about the IC50 (HepG2 [9]) of the same molecule?
A: 8 µM

Q: What about the IC50 (MCF7 [10]) of the same molecule?
A: 19.9 µM

Q: What does the source list for `CCOC(=O)/C(C#N)=C1/C(=O)Nc2ccc(S(=O)(=O)N3CCOCC3)cc21`?
A: IC50 (HepG2 [1]): < 10 µM; IC50 (MCF7 [2]): < 10 µM; IC50 (HCT-116 [3]): < 10 µM

Q: What does the source list for `Cc1noc(C)c1-c1ccc2c(c1)c(Cc1ccc(F)cc1)cn2CCCCCCCC(=O)NO`?
A: IC50 (Histone deacetylase 4): 5 nM; inhibition [11]: 88%; IC50 (THP-1): 15.5 µM

Q: For `COc1cc2cc(C(=O)N3CCC=C(Cl)C3=O)n(C)c2c(OC)c1OC`, which Activity (A549 [12]) is on record?
A: 54.6%

Q: For `O=C(Nc1ccc(Br)cc1)c1coc(-c2c[nH]c3cccnc23)n1`, which IC50 (MCF7 [13]) is on record?
A: 360 nM

Q: Which IC50 (HCT-116 [14]) does the source give for `COc1cnc2c(c1)c(-c1noc(-c3cn(C)c4ccc(Br)cc34)n1)cn2C` here?
A: 3550 nM

Q: Which IC50 (HeLa [15]) does the source give for `CC(C)(C)OC(=O)N1CCC2C(C1)c1cc(Br)ccc1N2S(=O)(=O)c1ccc(Cl)cc1` (configuration not stated) here?
A: 9.42 µM

Q: For `O=C(Nc1cc([N+](=O)[O-])cc([N+](=O)[O-])c1)c1coc(-c2c[nH]c3cccnc23)n1`, which IC50 (MCF7 [13]) is on record?
A: 34 nM

Q: With `Cn1cc(-c2nc(-c3cn(C)c4ncc(Cl)cc34)no2)c2cc(Br)ccc21` as the molecule, how does the IC50 (HCT-116 [14]) read?
A: 1930 nM

Q: What does the source list for `O=c1nc(-c2cn(S(=O)(=O)c3ccccc3)c3ccccc23)cc(-c2cccc(O)c2)[nH]1`?
A: Ratio IC50 (HepG2 [5]): >8; Ratio IC50 (MCF7 [6]): >8; Ratio IC50 (HCT-116 [7]): >8

Q: With `COc1ccc(OC)c(-c2cn3nc(-c4cn(C)c5ccc(Br)cc45)sc3n2)c1` as the molecule, how does the IC50 [16] read?
A: < 10 µM

Q: And the IC50 [17]?
A: < 10 µM

Q: Which IC50 (HepG2 [18]) does the source give for `Cn1cc(C2=C(C#N)C(c3ccc(Cl)cc3)c3c(nc(N)[nH]c3=O)N2)c2ccccc21` (configuration not stated) here?
A: 3.57 µM

Q: Which IC50 (A549 [19]) does the source give for `CNC(=S)N/N=C/c1c(-c2ccc(OC)cc2)[nH]c2ccccc12` here?
A: 12.5 µM

Q: And the “Ratio IC50” value [20]?
A: 2.27

Q: What does the source list for `O=C(O)C1=C2C(=Nc3ccc(S(=O)(=O)N4CCOCC4)cc32)NC1=O`?
A: IC50 (HepG2 [1]): < 10 µM; IC50 (MCF7 [2]): < 10 µM; IC50 (HCT-116 [3]): < 10 µM

Q: For `COc1cc(C(c2c[nH]c3ccccc23)c2c[nH]c3ccccc23)cc(Cl)c1O`, which IC50 (HeLa [21]) is on record?
A: 370 nM

Q: What about the IC50 (A549 [22]) of the same molecule?
A: 340 nM

Q: For `O=C(c1nnc(Nc2ccccc2F)o1)c1c[nH]c2ccccc12`, which IC50 (Tubulin) is on record?
A: 3.89 µM

Q: What about the IC50 (MCF7 [23]) of the same molecule?
A: 2420 nM

Q: For `O=C(Cc1c[nH]c2ncccc12)N/N=C/c1cn(Cc2ccc(Cl)cc2Cl)c2ccccc12`, which IC50 (MCF7 [4]) is on record?
A: 22.3 µM

Q: With `Nc1ccccc1Oc1cccc(C(c2c[nH]c3ccccc23)c2c[nH]c3ccccc23)c1` as the molecule, how does the IC50 (MCF7 [24]) read?
A: 23.6 µM

Q: Which “Ratio IC50” value [20] does the source give for `COc1cc([C@@H]2c3cc4c(cc3[C@H](OC(=O)Cc3ccc5cc[nH]c5c3)[C@H]3COC(=O)[C@H]23)OCO4)cc(OC)c1OC` here?
A: 2.27

Q: Which IC50 (MCF7 [4]) does the source give for `COc1ccc2c(c1)c(/C=N/NC(=O)Cc1c[nH]c3ncccc13)cn2Cc1ccc(Br)cc1` here?
A: 22.3 µM

Q: For `CCCCCc1cc2cc(C)cc(/N=C/c3[nH]c(C)c(CCCCC)c3C)c2[nH]1`, which IC50 (MDA-MB-231) is on record?
A: 4.2 µM

Q: With `COc1cc(/C=C/c2ncc([N+](=O)[O-])n2CCOC(=O)c2c[nH]c3ccccc23)cc(OC)c1OC` as the molecule, how does the IC50 (HeLa [25]) read?
A: 15 nM

Q: Which results are given for `COc1ccc(OC)c(-c2cn3nc(-c4c[nH]c5ccc(Br)cc45)sc3n2)c1`?
A: IC50 [16]: < 10 µM; GI50 [26]: 10.3 µM; GI50 (UO-31): 1670 nM; IC50 [17]: < 10 µM

Q: With `COc1cccc2c1C(=O)c1c(O)c3c(c(O)c1C2=O)C[C@@](O)(C(=O)CO)C[C@@H]3O[C@H]1C[C@H](N)[C@H](O)[C@H](C)O1` [DOXORUBICIN] as the molecule, how does the Activity (A549 [12]) read?
A: 53.3%

Q: With `N#Cc1ccc(Cn2cc(/C=N/NC(=O)Cc3c[nH]c4ncccc34)c3cc(Br)ccc32)cc1` as the molecule, how does the IC50 (MCF7 [4]) read?
A: 22.3 µM

Q: Which IC50 [27] does the source give for `Cc1cccc2c(C(c3ccc(O)cc3)c3c[nH]c4c(C)cccc34)c[nH]c12` here?
A: 10 µM

Q: Which results are given for `CS(=O)(=O)n1cc(-c2cc(-c3cccc(O)c3)[nH]c(=O)n2)c2ccccc21`?
A: Ratio IC50 (HepG2 [5]): >8; Ratio IC50 (MCF7 [6]): >8; Ratio IC50 (HCT-116 [7]): >8

Q: Which IC50 (MCF7 [24]) does the source give for `Nc1ccccc1Oc1cccc(C(c2c[nH]c3ccc(Cl)cc23)c2c[nH]c3ccc(Cl)cc23)c1` here?
A: 34.8 µM

Q: Which IC50 (HCT-15) does the source give for `COc1ccc(CC/N=C2\NC(=O)/C(=C/c3c[nH]c4ccc(Br)cc34)S2)cc1` here?
A: 920 nM

Q: With `O=C(Cc1c[nH]c2ncccc12)N/N=C/c1cn(Cc2ccc(Cl)cc2Cl)c2ccc(Br)cc12` as the molecule, how does the IC50 (MCF7 [4]) read?
A: 22.3 µM
